Laboratory results published in patent US20030232887A1, “Preparation and use of a stable formulation of allosteric effector compounds” (priority 2002, published 2003).
In brackets after ≈: the same amount, converted by molar mass. Read-outs that look alike come from different tables or passages of the source.

Columns and labels:
Assay type in all cases: physicochemical
[1] = Solubility of the allosteric effector compound in water and stabilizing agent solutions
Method: (§1) The pKa for 2-[4-[2-[(3,5-dimethylphenyl)amino]-2-oxoethyl]phenoxy]-2-methyl-propionic acid is about 3.5. Accordingly, there is an appreciable solubility at a pH of 7. The solubility of the sodium salt of 2-[4-[2-[(3,5-dimethylphenyl)amino]-2-oxoethyl]phenoxy]-2-methyl-propionic acid at a pH of 7 is about 50 mg/ml. […] It is thought that the addition of a stabilizing agent maintains the integrity of this small aggregate-like species.
This unforeseen problem of formation of particulate matter at concentrations beneath the solubility of the compound is solved by the addition of a stabilizing agent. The effect of the stabilizing agent is to prevent or minimize the formation of sub-visual particulates. In some embodiments, the stabilizing agent may also act as a buffer to stabilize the pH of the solution. In other embodiments, the stabilizing agent and buffering agent are different. The stabilizing agent acts to prevent the formation of significant amounts of sub-visual particulate matter, particularly after heat sterilization. The result is a formulation that can be terminally sterilized, have a long shelf life, and meet the USP 25 <788> sub-visual particulate matter requirements. Without being bound by theory, it is believed that stabilization of pH is one factor contributing to stabilization of the formulation; however, the pH of the solution alone is insufficient to stabilize the solutions. […] If necessary, the pH of the solution can be adjusted to a pH of at least about 6, preferably from about 6 to about 11. More preferably, the pH is adjusted to about 6.5 to about 9.0. More preferably, the pH is adjusted to about 7.5 to 8.5. The pH may be adjusted by the addition of any appropriate acid or base. Suitable acids may be amino acids, carboxylic acids, phosphoric acid, hydrochloric acid or other acids suitable for pharmaceutical preparations. Suitable bases include, sodium hydroxide or other bases suitable for pharmaceutical preparations.
Accordingly, stabilizing agents having an amine group are contemplated within the scope of this invention.

pKa = assay: pKa
Method: as §1

[2] = Chemical and physical (precipitate) stability of the formulation
Method: as §1
The allosteric modifying compound is chemically and physically stable between a pH of about 6 and about 11. Preferably, the composition has a pH of at least about 6. More preferably, the composition has a pH ranging from about 6 to about 11. Most preferably, the composition has a pH ranging from about 6.5 to about 9.0.
The composition of the present invention is chemically stable and stable with respect to the formation of particulate matter for at least about thirty days. This makes the composition particularly useful at the administration site because no additional steps, such as filtering the composition, are necessary prior to administration to a patient. Time is time after sterilization.

[3] = 20 mg/mL (58.7 mmol/L), pH 7.5, no stabilizing compound, heat sterilized

SMILES	solubility ([1]; aqueous buffer, 0.5 M arginine solution, 23° C., pH 7.2-7.5, read-out: solubility)	solubility ([1]; aqueous buffer, 0.5 M tris solution, 23° C., pH 7-8, read-out: solubility)	solubility ([1]; aqueous buffer, 100-200 mM meglumine solutions, 23° C., pH 7.5, read-out: increase in solubility)	solubility ([1]; in water, 23° C., read-out: solubility)	pKa (pKa)	chemical degradation [2, 3]	precipitate formation after heat sterilization [2, 3]	precipitation / subvisual particulate formation in solution ([2]; 20 mg/ml, pH about 7, 25° C.)	solubility ([1]; pH 7, aqueous buffer, pH of 7, read-out: solubility)
Cc1cc(C)cc(NC(=O)Cc2ccc(OC(C)(C)C(=O)O)cc2)c1 [2-[4-[2-[(3,5-dimethylphenyl)amino]-2-oxoethyl]phenoxy]-2-methyl-propionic acid]	155 mg/mL (≈ 454 mM)	99.9 mg/mL (≈ 293 mM)	~12 mg/mL (≈ 35.1 mM)	~44 mg/mL (≈ 129 mM)	~3.5	stable to chemical degradation	developed a precipitate of the allosteric modifier within one week after sterilization	begins to precipitate out of solution, forming subvisual particulate	
Cc1cc(C)cc(NC(=O)Cc2ccc(OC(C)(C)C(=O)[O-])cc2)c1.[Na+] [sodium salt of 2-[4-[2-[(3,5-dimethylphenyl)amino]-2-oxoethyl]phenoxy]-2-methyl-propionic acid]									~50 mg/mL
